# Structures can show the parent of a compound that is named as a salt.
# What was measured:
# [1] = target: T1, hα2C receptor (Homo sapiens, UniProt P18825); experiment: Radioligand binding experiment for α2C-adrenergic receptor ([3H]-raulwolscine); settings: CHO cell membranes with human α2C receptor, [3H]raulwolscine 1 nM; read-out: pIC50 α2C (converted)
# T1 construct: expressed in transfected cells; host or cells: CHO cells
# T1 sequence (P18825 1-462): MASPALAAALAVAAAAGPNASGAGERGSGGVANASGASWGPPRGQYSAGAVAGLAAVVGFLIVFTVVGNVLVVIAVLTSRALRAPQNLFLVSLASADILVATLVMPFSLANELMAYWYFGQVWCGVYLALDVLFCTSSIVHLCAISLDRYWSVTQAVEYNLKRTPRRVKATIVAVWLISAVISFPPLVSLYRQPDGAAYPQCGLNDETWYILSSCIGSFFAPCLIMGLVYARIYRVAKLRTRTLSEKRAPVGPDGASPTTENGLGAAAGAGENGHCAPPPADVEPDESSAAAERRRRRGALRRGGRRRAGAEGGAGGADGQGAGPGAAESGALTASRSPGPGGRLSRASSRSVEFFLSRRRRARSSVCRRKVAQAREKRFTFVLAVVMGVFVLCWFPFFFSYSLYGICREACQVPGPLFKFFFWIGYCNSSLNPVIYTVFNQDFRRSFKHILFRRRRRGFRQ
# Summary of the method: (§1)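 Membranes from CHO cells stably expressing human α2A or α2C receptors (sodium butyrate-induced) incubated with 1 nM [3H]raulwolscine in 25 mM glycylglycine pH 8.0 for 60 min at 25° C, then filtered. Non-specific binding defined with 1 μM oxymetazoline (α2A) or 1 μM spiroxatrine (α2C); pIC50 from sigmoidal competition curves.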
# [2] = target: T2, hα2A receptor (Homo sapiens, UniProt P08913); experiment: Radioligand binding experiment for α2A-adrenergic receptor ([3H]-raulwolscine); settings: CHO cell membranes with human α2A receptor, [3H]raulwolscine 1 nM; read-out: pIC50 α2A (converted)
# T2 construct: expressed in transfected cells; host or cells: CHO cells
# T2 sequence (P08913 1-465): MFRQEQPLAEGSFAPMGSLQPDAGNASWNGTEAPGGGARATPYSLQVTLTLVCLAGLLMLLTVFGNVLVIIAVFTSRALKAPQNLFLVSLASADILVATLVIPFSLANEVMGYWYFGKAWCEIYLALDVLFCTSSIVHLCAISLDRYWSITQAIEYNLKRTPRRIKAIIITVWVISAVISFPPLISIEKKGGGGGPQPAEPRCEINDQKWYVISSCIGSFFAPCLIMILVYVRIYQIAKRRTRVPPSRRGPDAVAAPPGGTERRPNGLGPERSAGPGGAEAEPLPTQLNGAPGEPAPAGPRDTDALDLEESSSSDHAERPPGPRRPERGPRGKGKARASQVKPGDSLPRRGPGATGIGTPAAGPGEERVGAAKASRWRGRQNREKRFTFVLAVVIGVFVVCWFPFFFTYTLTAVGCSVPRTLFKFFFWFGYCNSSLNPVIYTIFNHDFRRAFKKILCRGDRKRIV
# Summary of the method: as §1
# [3] = target: T3, h5-HT transporter (Homo sapiens, UniProt P31645); experiment: Radioligand binding experiment for 5-HT transporter ([3H]paroxetine); settings: human platelet membranes, [3H]paroxetine 0.5 nM
# T3 construct: Human platelet membranes (Oceanix Biosciences Corporation, Hanover, Md., USA) were thawed; tissue Oceanix Biosciences Corporation; host or cells: human platelet membranes
# T3 sequence (P31645 whole entry): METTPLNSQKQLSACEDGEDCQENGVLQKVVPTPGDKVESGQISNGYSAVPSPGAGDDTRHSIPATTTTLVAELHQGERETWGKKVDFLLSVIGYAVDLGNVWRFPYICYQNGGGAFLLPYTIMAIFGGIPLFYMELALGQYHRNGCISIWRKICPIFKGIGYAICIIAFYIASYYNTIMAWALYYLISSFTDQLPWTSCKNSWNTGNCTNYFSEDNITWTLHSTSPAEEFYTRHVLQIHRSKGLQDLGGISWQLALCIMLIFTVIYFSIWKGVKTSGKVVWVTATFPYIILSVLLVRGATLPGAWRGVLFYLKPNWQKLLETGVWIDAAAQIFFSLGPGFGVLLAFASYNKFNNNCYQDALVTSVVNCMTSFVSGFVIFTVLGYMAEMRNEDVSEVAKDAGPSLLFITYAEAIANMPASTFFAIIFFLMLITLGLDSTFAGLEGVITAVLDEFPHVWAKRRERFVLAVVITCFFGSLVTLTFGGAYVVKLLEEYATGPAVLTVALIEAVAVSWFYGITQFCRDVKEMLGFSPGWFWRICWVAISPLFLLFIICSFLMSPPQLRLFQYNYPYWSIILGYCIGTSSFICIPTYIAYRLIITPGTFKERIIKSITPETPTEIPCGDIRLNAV
# Summary of the method: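 Competition binding on human platelet membranes (50-100 μg protein) in 50 mM Tris-HCl, 120 mM NaCl, 5 mM KCl with 0.5 nM [3H]paroxetine, 60 min at 25 °C, filtration and scintillation counting. Non-specific binding defined with 1 μM imipramine; pIC50 from nonlinear sigmoidal fits of percent total binding.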
Compound,melting point [°C],IC50 [1] [nM],IC50 [2] [nM],IC50 [3] [nM]
CC(=Cc1ccccc1)CN1CCN(CC2ON=C3c4ccc(NC(=O)C(C)(C)C)cc4OCC32)CC1 (stereo not shown) [Compound 50],183.4 to 190.2,1,3.16,15.8
CC(=Cc1ccccc1)CN1CCN(CC2ON=C3c4ccc(N(C)c5ccccc5)cc4OCC32)CC1 (stereo not shown) [Compound 41],125.9 to 139.7,25.1,25.1,158
CC(=Cc1ccc(F)cc1)CN1CCN(CC2ON=C3c4ccc(N5CCOCC5)cc4OCC32)CC1 (stereo not shown) [Compound 84],179.2 to 188.8,1.26,6.31,25.1
CC(=Cc1ccccc1)CN1CCN(CC2ON=C3c4ccc(NC(=O)NC5CCCCC5)cc4OCC32)CC1 (stereo not shown) [Compound 62],121.1 to 136.5,6.31,25.1,39.8
C/C(=C\c1ccccc1)CN1CCN(CC2ON=C3c4ccc(NCc5ccccc5)cc4OCC32)CC1 (stereo not shown) [Compound 2],108.9 to 114.7,,15.8,31.6
CC(=Cc1ccc(F)cc1)CN1CCN(CC2ON=C3c4ccc(N(C)CCN)cc4OCC32)CC1 (stereo not shown) (as salt: HCl) [Compound 19],218 to 226,,,
CC(=Cc1ccccc1)CN1CCN(CC2ON=C3c4ccc(NC(=O)Nc5cccc(F)c5)cc4OCC32)CC1 (stereo not shown) [Compound 65],186.8 to 188.5,31.6,79.4,1580
C/C(=C\c1ccccc1)CN1CCN(CC2ON=C3c4ccc(N)cc4OCC32)CC1 (stereo not shown) [Compound 5],134.1 to 136.2,3.98,2.51,100
CC(=Cc1ccccc1)CN1CCN(CC2ON=C3c4ccc(Nc5cccc(C#N)c5)cc4OCC32)CC1 (stereo not shown) [Compound 44],152.7 to 162.6,20,15.8,15.8
CC(=Cc1ccccc1)CN1CCN(CC2ON=C3c4ccc(Nc5ccccc5)cc4OCC32)CC1 (stereo not shown) [Compound 40],127.1 to 131.4,10,15.8,50.1
CC(=Cc1ccc(F)cc1)CN1CCN(CC2ON=C3c4ccc(N5CCCC5)cc4OCC32)CC1 (stereo not shown) [Compound 70],194.7 to 204.9,7.94,12.6,100
C/C(=C\c1ccccc1)CN1CCN(CC2ON=C3c4cc(N5CCOCC5)ccc4OCC32)CC1 (stereo not shown) [Compound 4],121.8 to 125.9,2.51,12.6,> 1000
CCOC(=O)CNC(=O)Nc1ccc2c(c1)OCC1C2=NOC1CN1CCN(CC(C)=Cc2ccccc2)CC1 (stereo not shown) [Compound 63],175.3 to 177,1.58,7.94,31.6
CC(=Cc1ccc(F)cc1)CN1CCN(CC2ON=C3c4ccc(N5CCN(c6ccccc6)CC5)cc4OCC32)CC1 (stereo not shown) [Compound 79],203.5 to 206.2,7.94,251,200
C=CC(=O)Nc1ccc2c(c1)OCC1C2=NOC1CN1CCN(CC(C)=Cc2ccccc2)CC1 (stereo not shown) [Compound 54],136.1 to 172.9,0.794,1.58,25.1
CC(=Cc1ccc(F)cc1)CN1CCN(CC2ON=C3c4ccc(N5CCCCC5)cc4OCC32)CC1 (stereo not shown) [Compound 71],168.2 to 169.4,6.31,63.1,100
COc1cc2c(cc1NCCN(C)C)OCC1C2=NOC1CN1CCN(CC(C)=Cc2ccc(F)cc2)CC1 (stereo not shown) [Compound 24],157.7 to 159.9,1.58,25.1,5.01
CC(=Cc1ccc(F)cc1)CN1CCN(CC2ON=C3c4ccc(N5CCN(Cc6ccccc6)CC5)cc4OCC32)CC1 (stereo not shown) [Compound 80],166.4 to 178.2,3.98,126,126

Compound,melting point [°C],IC50 [1] [nM],IC50 [2] [nM],IC50 [3] [nM]
CC(=Cc1ccccc1)CN1CCN(CC2ON=C3c4ccc(Nc5ccccc5C)cc4OCC32)CC1 (stereo not shown) [Compound 45],133.3 to 148.9,20,20,79.4
CC(=Cc1ccc(F)cc1)CN1CCN(CC2ON=C3c4ccc(NCCN5CCCC5)cc4OCC32)CC1 (stereo not shown) [Compound 28],108.3 to 121.8,3.98,63.1,3.16
COc1ccc(Nc2ccc3c(c2)OCC2C3=NOC2CN2CCN(CC(C)=Cc3ccc(F)cc3)CC2)cc1 (stereo not shown) [Compound 43],131.7 to 134.5,126,398,631
C/C(=C\c1ccc(F)cc1)CN1CCN(CC2ON=C3c4cc5c(cc4OCC32)NCCO5)CC1 (stereo not shown) [Compound 90],160.6 to 172.2,1.58,15.8,15.8
COc1cc2c(cc1NCCN1CCCC1)OCC1C2=NOC1CN1CCN(CC(C)=Cc2ccccc2)CC1 (stereo not shown) [Compound 26],120.4 to 123,< 1,5.01,3.16
COc1cc2c(cc1N1CCN(C)CC1)OCC1C2=NOC1CN1CCN(CC(C)=Cc2ccccc2)CC1 (stereo not shown) [Compound 75],142.8 to 144.4,< 1,1.58,7.94
CNCCNc1ccc2c(c1)OCC1C2=NOC1CN1CCN(CC(C)=Cc2ccc(F)cc2)CC1 (stereo not shown) (as salt: HCl) [Compound 20],199 to 235.5,,,
COc1cc2c(cc1NCCN(C)C)OCC1C2=NOC1CN1CCN(C/C(C)=C/c2ccccc2)CC1 (stereo not shown) [Compound 9],154.5 to 157.9,1000,5.01,5.01
CNCCN(C)c1ccc2c(c1)OCC1C2=NOC1CN1CCN(CC(C)=Cc2ccc(F)cc2)CC1 (stereo not shown) [Compound 21],98.4 to 105.3,2,7.94,3.98
C/C(=C\CN1CCN(CC2ON=C3c4cc5c(cc4OCC32)NCCO5)CC1)c1ccccc1 (stereo not shown) [Compound 91],130.4 to 146.4,1.58,6.31,31.6
CC(=Cc1ccccc1)CN1CCN(CC2ON=C3c4ccc(NC(=O)Nc5ccccc5)cc4OCC32)CC1 (stereo not shown) [Compound 64],180.3 to 181.6,15.8,25.1,251
c1ccc2cc(CN3CCN(CC4ON=C5c6cc7c(cc6OCC54)NCCO7)CC3)ccc2c1 (stereo not shown) [Compound 92],85.3 to 103.9,2.51,20,5.01
CC(=Cc1ccc(F)cc1)CN1CCN(CC2ON=C3c4ccc(N5CCN(C)CC5)cc4OCC32)CC1 (stereo not shown) [Compound 77],147.3 to 150.6,2.51,39.8,3.16
CC(=Cc1ccccc1)CN1CCN(CC2ON=C3c4ccc(N(S(C)(=O)=O)S(C)(=O)=O)cc4OCC32)CC1 (stereo not shown) [Compound 66],201.8 to 202.9,0.501,5.01,39.8
COc1cc2c(cc1N1CCOCC1)OCC1C2=NOC1CN1CCN(CC(C)=Cc2ccccc2)CC1 (stereo not shown) [Compound 82],143.5 to 145.9,1.26,1.58,39.8
CCOC(=O)C1CCN(c2ccc3c(c2)OCC2C3=NOC2CN2CCN(CC(C)=Cc3ccc(F)cc3)CC2)CC1 (stereo not shown) [Compound 72],156.4 to 161,20,100,631
CC(=Cc1ccccc1)CN1CCN(CC2ON=C3c4ccc(NC(=O)NC(C)(C)C)cc4OCC32)CC1 (stereo not shown) [Compound 61],98.4 to 113.5,2,7.94,20

# Source: patent US7265103B2, “Substituted amino isoxazoline derivatives and their use as anti-depressants” (Janssen Pharmaceutica NV., priority 2002, dated 2007)
